Assay in all cases: relative viability (nuclei count vs DMSO), 5 days (fraction); higher = more cells survive
Compound in the experiment “CUDC-101 + OSI-027”: C#Cc1cccc(Nc2ncnc3cc(OC)c(OCCCCCCC(=O)NO)cc23)c1 [CUDC-101] + COc1cccc2cc(-c3nc([C@H]4CC[C@H](C(=O)O)CC4)n4ncnc(N)c34)[nH]c12 [OSI-027] (partner 0.5 µM)
Summed up: (§1)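 Values are medians from duplicate plates. Each reflects relative viability, defined as the nuclei count of treated wells over that of vehicle wells. Lung cancer cell lines in 1536-well plates were pin-tool dosed one day after seeding with one drug alone or with a fixed anchor-drug dose plus five library-drug doses (not always all listed) in √10 steps, then fixed, stained and imaged at 4× after 5 days.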

Compound in the experiment “NVP-TAE684 + Crizotinib”: COc1cc(N2CCC(N3CCN(C)CC3)CC2)ccc1Nc1ncc(Cl)c(Nc2ccccc2S(=O)(=O)C(C)C)n1 [NVP-TAE684] + C[C@@H](Oc1cc(-c2cnn(C3CCNCC3)c2)cnc1N)c1c(Cl)ccc(F)c1Cl [Crizotinib] (partner 1 µM)
Summed up:
as §1

Compound in the experiment “Vandetanib + Lapatinib”: COc1cc2/c(=N/c3ccc(Br)cc3F)nc[nH]c2cc1OCC1CCN(C)CC1 [Vandetanib] + CS(=O)(=O)CCNCc1ccc(-c2ccc3ncnc(Nc4ccc(OCc5cccc(F)c5)c(Cl)c4)c3c2)o1 [Lapatinib] (partner 2 µM)
In short, it runs like this:
as §1

Compound in the experiment “Vandetanib + Linsitinib”: COc1cc2/c(=N/c3ccc(Br)cc3F)nc[nH]c2cc1OCC1CCN(C)CC1 [Vandetanib] + C[C@]1(O)C[C@@H](c2nc(-c3ccc4ccc(-c5ccccc5)nc4c3)c3c(N)nccn32)C1 [Linsitinib] (partner 1 µM)
Summed up: as §1

In the case of NCI-H322M, the relative viability with CUDC-101 + OSI-027 (first compound 0.01 µM) was 0.679; with CUDC-101 + OSI-027 (first compound 0.03162 µM) it was 0.555; with CUDC-101 + OSI-027 (first compound 0.1 µM) it was 0.518; with CUDC-101 + OSI-027 (first compound 0.3162 µM) it was 0.417; with CUDC-101 + OSI-027 (first compound 1 µM), 0.308; with NVP-TAE684 + Crizotinib (first compound 0.2 µM), 0.973. Further, the relative viability with NVP-TAE684 + Crizotinib (first compound 0.6325 µM) was 0.758; with NVP-TAE684 + Crizotinib (first compound 2 µM) it was 0.845; with Vandetanib + Lapatinib (first compound 0.02 µM), 0.6; in the experiment with Vandetanib + Lapatinib (first compound 0.06325 µM) it was 0.534; with Vandetanib + Lapatinib (first compound 0.2 µM), 0.567; with Vandetanib + Lapatinib (first compound 0.6325 µM), 0.516. In addition, the relative viability with Vandetanib + Lapatinib (first compound 2 µM) came to 0.5; with Vandetanib + Linsitinib (first compound 0.02 µM) it was 0.832; with Vandetanib + Linsitinib (first compound 0.06325 µM), 0.841; with Vandetanib + Linsitinib (first compound 0.2 µM) it was 0.924; with Vandetanib + Linsitinib (first compound 0.6325 µM), 0.846; with Vandetanib + Linsitinib (first compound 2 µM), 0.894.

As for NCI-H358, the relative viability was 0.834 with CUDC-101 + OSI-027 (first compound 0.01 µM); 0.893 with CUDC-101 + OSI-027 (first compound 0.03162 µM); 0.909 with CUDC-101 + OSI-027 (first compound 0.1 µM); 0.884 with CUDC-101 + OSI-027 (first compound 0.3162 µM); 0.315 in the experiment with CUDC-101 + OSI-027 (first compound 1 µM); 0.441 in the experiment with NVP-TAE684 + Crizotinib (first compound 0.2 µM). Further, the relative viability with NVP-TAE684 + Crizotinib (first compound 0.6325 µM) was 0.347; in the experiment with NVP-TAE684 + Crizotinib (first compound 2 µM) it was 0.081; with Vandetanib + Lapatinib (first compound 0.02 µM) it was 0.38; with Vandetanib + Lapatinib (first compound 0.06325 µM), 0.397; with Vandetanib + Lapatinib (first compound 0.2 µM) it was 0.445; in the experiment with Vandetanib + Lapatinib (first compound 0.6325 µM), 0.419. Moreover, the relative viability with Vandetanib + Lapatinib (first compound 2 µM) worked out at 0.434; with Vandetanib + Linsitinib (first compound 0.02 µM), 0.764; with Vandetanib + Linsitinib (first compound 0.06325 µM) it was 0.708; in the experiment with Vandetanib + Linsitinib (first compound 0.2 µM) it was 0.201; with Vandetanib + Linsitinib (first compound 0.6325 µM), 0.501; in the experiment with Vandetanib + Linsitinib (first compound 2 µM), 0.301.

Regarding NCI-H460, the relative viability came to 0.701 in the experiment with CUDC-101 + OSI-027 (first compound 0.01 µM); 0.62 in the experiment with CUDC-101 + OSI-027 (first compound 0.03162 µM); 0.734 in the experiment with CUDC-101 + OSI-027 (first compound 0.1 µM); 0.762 with CUDC-101 + OSI-027 (first compound 0.3162 µM); 0.555 with CUDC-101 + OSI-027 (first compound 1 µM); 1.16 in the experiment with NVP-TAE684 + Crizotinib (first compound 0.2 µM). Moreover, the relative viability in the experiment with NVP-TAE684 + Crizotinib (first compound 0.6325 µM) came to 0.831; with NVP-TAE684 + Crizotinib (first compound 2 µM) it was 0.247; in the experiment with Vandetanib + Lapatinib (first compound 0.02 µM), 0.878; with Vandetanib + Lapatinib (first compound 0.06325 µM), 0.962; with Vandetanib + Lapatinib (first compound 0.2 µM), 0.969; with Vandetanib + Lapatinib (first compound 0.6325 µM), 0.951. Moreover, the relative viability in the experiment with Vandetanib + Lapatinib (first compound 2 µM) was 0.874; in the experiment with Vandetanib + Linsitinib (first compound 0.02 µM) it was 0.733; in the experiment with Vandetanib + Linsitinib (first compound 0.06325 µM), 0.758; with Vandetanib + Linsitinib (first compound 0.2 µM), 0.0194; with Vandetanib + Linsitinib (first compound 0.6325 µM) it was 0.757; with Vandetanib + Linsitinib (first compound 2 µM) it was 0.58.

For the cell line NCI-H520, the relative viability in the experiment with CUDC-101 + OSI-027 (first compound 0.01 µM) was 0.218; in the experiment with CUDC-101 + OSI-027 (first compound 0.03162 µM), 0.281; with CUDC-101 + OSI-027 (first compound 0.1 µM), 0.327; with CUDC-101 + OSI-027 (first compound 0.3162 µM), 0.256; with CUDC-101 + OSI-027 (first compound 1 µM), 0.191; in the experiment with NVP-TAE684 + Crizotinib (first compound 0.2 µM), 0.668. For the same cell line, the relative viability with NVP-TAE684 + Crizotinib (first compound 0.6325 µM) was 0.651; with NVP-TAE684 + Crizotinib (first compound 2 µM), 0.348; with Vandetanib + Lapatinib (first compound 0.02 µM), 0.679; in the experiment with Vandetanib + Lapatinib (first compound 0.06325 µM) it was 0.807; with Vandetanib + Lapatinib (first compound 0.2 µM), 0.918; with Vandetanib + Lapatinib (first compound 0.6325 µM), 0.936. In addition, the relative viability was determined as 0.831 with Vandetanib + Lapatinib (first compound 2 µM); 0.886 in the experiment with Vandetanib + Linsitinib (first compound 0.02 µM); 1.1 with Vandetanib + Linsitinib (first compound 0.06325 µM); 0.942 in the experiment with Vandetanib + Linsitinib (first compound 0.2 µM); 0.904 with Vandetanib + Linsitinib (first compound 0.6325 µM); 0.912 with Vandetanib + Linsitinib (first compound 2 µM).

Take NCI-H596: the relative viability stood at 0.655 in the experiment with CUDC-101 + OSI-027 (first compound 0.01 µM); 0.715 with CUDC-101 + OSI-027 (first compound 0.03162 µM); 0.783 in the experiment with CUDC-101 + OSI-027 (first compound 0.1 µM); 0.805 with CUDC-101 + OSI-027 (first compound 0.3162 µM); 0.751 with CUDC-101 + OSI-027 (first compound 1 µM); 0.974 with NVP-TAE684 + Crizotinib (first compound 0.2 µM). For the same cell line, the relative viability with NVP-TAE684 + Crizotinib (first compound 0.6325 µM) stood at 0.886; with NVP-TAE684 + Crizotinib (first compound 2 µM) it was 0.717; with Vandetanib + Lapatinib (first compound 0.02 µM), 1.1; with Vandetanib + Lapatinib (first compound 0.06325 µM), 0.912; in the experiment with Vandetanib + Lapatinib (first compound 0.2 µM), 1.11; in the experiment with Vandetanib + Lapatinib (first compound 0.6325 µM), 1.1. The relative viability with Vandetanib + Lapatinib (first compound 2 µM) was found to be 0.947; with Vandetanib + Linsitinib (first compound 0.02 µM), 1.04; with Vandetanib + Linsitinib (first compound 0.06325 µM), 0.942; with Vandetanib + Linsitinib (first compound 0.2 µM) it was 1.11; in the experiment with Vandetanib + Linsitinib (first compound 0.6325 µM) it was 0.956; in the experiment with Vandetanib + Linsitinib (first compound 2 µM) it was 0.972.

In the case of NCI-H647, the relative viability is 0.68 with CUDC-101 + OSI-027 (first compound 0.01 µM); 0.668 in the experiment with CUDC-101 + OSI-027 (first compound 0.03162 µM); 0.783 in the experiment with CUDC-101 + OSI-027 (first compound 0.1 µM); 0.596 in the experiment with CUDC-101 + OSI-027 (first compound 0.3162 µM); 0.383 with CUDC-101 + OSI-027 (first compound 1 µM); 0.959 with NVP-TAE684 + Crizotinib (first compound 0.2 µM). In addition, the relative viability with NVP-TAE684 + Crizotinib (first compound 0.6325 µM) came to 0.983; in the experiment with NVP-TAE684 + Crizotinib (first compound 2 µM), 0.172; with Vandetanib + Lapatinib (first compound 0.02 µM), 1.02; in the experiment with Vandetanib + Lapatinib (first compound 0.06325 µM) it was 1.09; in the experiment with Vandetanib + Lapatinib (first compound 0.2 µM), 1.09; in the experiment with Vandetanib + Lapatinib (first compound 0.6325 µM) it was 1.08. Also, the relative viability amounted to 0.999 with Vandetanib + Lapatinib (first compound 2 µM); 1.1 with Vandetanib + Linsitinib (first compound 0.02 µM); 1.13 in the experiment with Vandetanib + Linsitinib (first compound 0.06325 µM); 1.08 with Vandetanib + Linsitinib (first compound 0.2 µM); 1.2 with Vandetanib + Linsitinib (first compound 0.6325 µM); 1.14 in the experiment with Vandetanib + Linsitinib (first compound 2 µM).

As to NCI-H650, the relative viability is 0.58 with CUDC-101 + OSI-027 (first compound 0.01 µM); 0.569 with CUDC-101 + OSI-027 (first compound 0.03162 µM); 0.622 in the experiment with CUDC-101 + OSI-027 (first compound 0.1 µM); 0.587 in the experiment with CUDC-101 + OSI-027 (first compound 0.3162 µM); 0.474 with CUDC-101 + OSI-027 (first compound 1 µM); 0.799 in the experiment with NVP-TAE684 + Crizotinib (first compound 0.2 µM). Also, the relative viability turned out to be 0.516 with NVP-TAE684 + Crizotinib (first compound 0.6325 µM); 0.399 with NVP-TAE684 + Crizotinib (first compound 2 µM); 1.06 with Vandetanib + Lapatinib (first compound 0.02 µM); 1.04 in the experiment with Vandetanib + Lapatinib (first compound 0.06325 µM); 0.636 in the experiment with Vandetanib + Lapatinib (first compound 0.2 µM); 0.896 in the experiment with Vandetanib + Lapatinib (first compound 0.6325 µM). For the same cell line, the relative viability in the experiment with Vandetanib + Lapatinib (first compound 2 µM) was 0.308; with Vandetanib + Linsitinib (first compound 0.02 µM), 0.872; with Vandetanib + Linsitinib (first compound 0.06325 µM), 0.839; in the experiment with Vandetanib + Linsitinib (first compound 0.2 µM), 0.677; with Vandetanib + Linsitinib (first compound 0.6325 µM), 0.792; in the experiment with Vandetanib + Linsitinib (first compound 2 µM), 0.254.

With NCI-H661, the relative viability with CUDC-101 + OSI-027 (first compound 0.01 µM) was determined as 0.709; with CUDC-101 + OSI-027 (first compound 0.03162 µM), 0.808; in the experiment with CUDC-101 + OSI-027 (first compound 0.1 µM), 0.735; with CUDC-101 + OSI-027 (first compound 0.3162 µM), 0.711; with CUDC-101 + OSI-027 (first compound 1 µM) it was 0.346; with NVP-TAE684 + Crizotinib (first compound 0.2 µM), 1.03. For the same cell line, the relative viability in the experiment with NVP-TAE684 + Crizotinib (first compound 0.6325 µM) was 1.02; in the experiment with NVP-TAE684 + Crizotinib (first compound 2 µM), 1.05; with Vandetanib + Lapatinib (first compound 0.02 µM), 0.547; in the experiment with Vandetanib + Lapatinib (first compound 0.06325 µM) it was 0.532; with Vandetanib + Lapatinib (first compound 0.2 µM) it was 0.555; with Vandetanib + Lapatinib (first compound 0.6325 µM) it was 0.607. The relative viability is 0.365 with Vandetanib + Lapatinib (first compound 2 µM); 0.585 with Vandetanib + Linsitinib (first compound 0.02 µM); 0.506 in the experiment with Vandetanib + Linsitinib (first compound 0.06325 µM); 0.59 with Vandetanib + Linsitinib (first compound 0.2 µM); 0.672 in the experiment with Vandetanib + Linsitinib (first compound 0.6325 µM); 0.418 with Vandetanib + Linsitinib (first compound 2 µM).

For the origin of these results see the supplement of paper PMC10307832.
